Assay results from patent US20100048923A1, “ATR Inhibitor” (priority 2005, published 2010).
Each block holds one compound with its values, some of them ahead of it.

Tests used:
[1] = test system: P-p53 (Ser15) in A549 cells; assay: Phosphorylation of p53 at serine 15 in UV-irradiated A549 cells (immunoblot); assay type: cell-based; details: Homo sapiens, light or radiation study, 3 h, 30 μM compound, 25 J/m^2 UV, UV irradiation alone = 100%, Control 15.4, read-out: Relative rate of P-p53 (Ser15) band intensity
Method: A549 cells were seeded as 3×10^4 cells/cm^2 in the growth medium on 10 cm dish, incubated for overnight, and Schizandrin B was added in the medium as final concentration of 30 μM in the medium. After 1 hour incubation, the medium was removed, irradiated with 20 J/m^2 of UV, and incubated for 3 hours (hereinafter, referred to as “UV-cell group” with regard to the obtained cells).
It should be noted that both groups of the UV-cell group and IR-cell group were cultured in the presence of 50 μM of N-acetyl-L-Leucyl-L-Leucyl-L-norleucinal (Sigma, Mo., USA) (hereinafter, referred to as “LLnL”) from 15 minutes prior to the irradiation to collection of the cells as mentioned below. Protein in the cells were extracted in accordance with a Preparation of proteins as mentioned below, immunoblot analysis was performed with regard to the phosphorylated p53 at 15 serine (P-p53 (Ser 15)), p53 protein (p53), phosphorylated ATM protein at 1981 serine (P-ATM (Ser1981)) and glyceraldehyde-3-phosphate dehydrogenase (GAPDH) in accordance with an Immunoblot analysis as mentioned below.
The dose-depended effect of Schizandrin B on the phosphorylation of p53 in A549 cells irradiated with UV A549 cells were seeded as 3×10^4 cells/cm^2 in the growth medium on 10 cm dish, incubated for overnight, and Schizandrin B was added in the medium as final concentration of 10, 30 and 100 μM in the medium. After 1 hour incubation, the medium was removed, and the cells were irradiated with 20 J/m^2 of UV. The cells were treated with LLnL as mentioned in Embodiment 4. Then, expression of p53 and phosphorylated p53 at 15 serine (P-p53 (Ser15)) in the cells treated with the same concentration of Schizandrin B as mentioned above was examined.
Expression of phosphorylated p53 at 15 serine (P-p53 (Ser15)) was examined in accordance with Embodiment 5-1, except that, in Embodiment 5-1, compounds of the Formulas (1) to (10) and the compound of the Formula (C) (final concentration of 30 μM) were added in the medium instead of the addition of final concentration of 10, 30 and 100 μM of Schizandrin B in the medium, and 25 J/m^2 of UV was irradiated instead of the 20 J/m^2 of UV irradiation. Electrophoresis image as obtained is shown in FIG. 5-2, and relative ratio of the band intensity corresponding to P-p53 (Ser15) to that of the band as obtained in the irradiation with UV as 100% is shown in Table 2.
50 μg of cellular proteins (as prepared in accordance with the Preparation of proteins as mentioned below) were applied to SDS polyacrylamide gel electrophoresis (12.5%), the electrophored proteins were transferred into the nitrocellulose membrane in accordance with the standard method, and blocking reaction was performed for 1 hour at room temperature using Tris-buffered saline (TBS-T) containing 5% skim milk and 0.1% Triton X-100. So obtained membrane were incubated with the desired adequate antibodies as mentioned below for 16 hours at 4° C., and then incubated with secondary anti-serum (corresponding to the animal originated from the desired antibodies) conjugated with horseradish peroxidase for 1 hour at room temperature. Then, the target proteins were visualized with ECL reaction kit (Amersham) and chemiluminescence film (Amersham) to obtain a protein image.
The cells were harvested with ice-cooled PBS from the culture dish, and were washed twice with cooled PBS. Then, it was centrifuged to obtain cell pellet. The pellet was solubilized with UTB buffer as mentioned below to prepare cellular protein. The content of the proteins was measured with Protein Assay kit (Bio-Rad).

[2] = test system: A549 cells; assay: G2/M checkpoint: cells containing phosphorylated histone H3 (flow cytometry) in UV-irradiated A549 cells; assay type: cell-based; details: 30 μM compound, 20 J/m^2 UV, ratio of G2/M (phospho-histone H3) cells to total, Control 1.88, UV irradiation alone 0.52
Method: A549 cells were seeded as 3×10^4 cells/cm^2 in the growth medium on 10 cm dish and incubated for overnight. Then, Schizandrin B was added to the medium as final concentration of 30 μM. At 1 hour after the addition of Schizandrin B, the medium was removed, and were irradiated with 20 J/m^2 and 50 J/m^2 of UV. After the UV irradiation, and then the cells were incubated in the Schizandrin B-containing medium having the same concentration as mentioned above for 1 hour. Then, the percentage of the cells containing phosphorylated histone H3 were measured in accordance with a Measurement of the phosphorylated histone H3 as mentioned below. The FIG. 2(A) is a result of flowcytometry as obtained in the treatment with Schizandrin B. In the FIG. 2(A), the encircled portion indicates the cell group in G2/M phase, numbers as mentioned above the portion indicates the ratio of the cells in G2/M phase to the total number of cells. In addition, the FIG. 2(B) indicates a graph showing the ratio.
Ratios of the cells in G2/M phase to the total number of cells were obtained in accordance with the Embodiment 2-1, except that, in the Embodiment 2-1, 20 J/m^2 of UV were irradiated instead of 20 J/m^2 and 50 J/m^2 of UV and the compounds of the formulas (1) to (10) and Angeloyl Gomisin A of a formula (C) (final concentration of 30 μM) as mentioned below were used instead of the final concentration of 30 μM of Schizandrin B. The result is shown in Table 1.
The cells were harvested and fixed with 70% ice-cooled ethanol after the washing with PBS. PBS containing 0.25% Triton X-100 was added, and the cells were stood on ice for 30 minutes. Cells were centrifuged (500×g, 5 minutes) and replaced to PBS containing 1% bovine serum albumin (BSA) and 1 μg of […] (specifically binding to the phosphorylated histone H3 at 13 Serine), and incubated for 4 hours at room temperature.
After the subsequent washes with PBS containing 1% BSA, goat anti-rabbit IgG antibody conjugated with FITC which diluted with 100 times with PBS containing 1% BSA was added, and incubated for 30 minutes at dark place. These cells were counterstained with PI in accordance with the FACS analysis as mentioned below. The percentage of cells containing phosphorylated histone H3 was measured and evaluated with flowcytometry (Beckman-Coulter).

[3] = biological target: T1, ATM (Homo sapiens, UniProt Q13315); details: caffeine, literature; cited from earlier work
T1 construct: made in house; host or cells: 293T cells (ATCC: CRL-11268), transient transfection, anti-Flag M2 immunoprecipitate

[4] = biological target: T2, ATR (Homo sapiens, UniProt Q13535); assay: ATR protein kinase activity (Flag-ATR immunoprecipitate, PHAS-I substrate, 32P-ATP); assay type: biochemical; details: 300 μM ATP, 20 minutes at 30° C., estimated from lines, read-out: IC50 for the phosphorylating activity of ATR
T2 construct: made in house; host or cells: 293T cells (ATCC: CRL-11268), transient transfection of pcDNA3.1 plasmid, anti-Flag M2 immunoprecipitate
Method: 1 μg of recombinant PHAS-I protein (Alexis Biochemicals) as a substrate, and Schizandrin B were added to mixtures of ATR and ATM for the kinase reaction as prepared in accordance with a Preparation of mixtures of ATR and ATM for kinase reaction as follows. 300 μM of ATP containing a suitable concentration of ^32P-ATP was added to react it for 20 minutes at 30° C. 4 volumes of SDS sample loading buffer (200 mM Tris-HCl (pH 6.8), 400 mM DTT and 8% SDS) were added to the reaction mixture to stop the reaction, and the obtained mixture is applied to 12% SDS-PAGE. After the gel as obtained was dried, […] corresponding to the band of ^32P—PHAS-I in the mixture was evaluated using autoradiography method. In the Figure, (A) and (B) indicate the relative activities of ATR and ATM, respectively, the horizontal axis indicates the concentration of Schizandrin B, and the vertical axis indicates the relative value of the count as obtained in Schizandrin B-treated group to that of no-addition of Schizandrin B group.
IC50s of the compounds for the phosphorylating activity of ATR were estimated based on the lines as obtained in accordance with Embodiment 7-1, except that, in Embodiment 7-1, the compounds of the Formulas (1) to (5) and the compound of the Formula (C) were used instead of Schizandrin B. The values are shown in Table 3.
ATR conjugated with Flag as constructed with conventional method as disclosed in, e.g. Non-Patent-Related Document 9 was used for a mixture of ATR for kinase reaction. In detail, Bam H1H-Swa I fragment of ATR gene (Sequence Number 4) (1 kb) was substituted with a gene having the ATR gene and Flag ([…]) at N terminal and the gene was amplified with PCR. So obtained gene product was introduced into pcDNA3.1, and target product was obtained from the plasmid. In addition, ATM conjugated with Flag as manufactured in accordance with the well-known method as disclosed in e.g. non-patent related documents 10 and 11 and using Quikchange site-Directed Mutagenesis Kit (Stratagene) was used for a mixture of ATM for kinase reaction.
These ATR and ATM plasmids tagged with Flag (Sequence Numbers 4 and 5) were transfected in 293T cells (ATCC: CRL-11268) by Calcium phosphate method as followed. After 2 days, 5 mg of cellular proteins were prepared using IP buffer in accordance with the Preparation of proteins as mentioned below instead of the UTB buffer, and ATR and ATM were immuno-precipitated with 20 μg of anti-Flag M2 monoclonal antibody (Sigma) for 4 hours at […], independently. The precipitates were incubated with beads conjugated with protein G cepharose (Amersham). […]

T2 sequence (Q13535 whole entry A92R): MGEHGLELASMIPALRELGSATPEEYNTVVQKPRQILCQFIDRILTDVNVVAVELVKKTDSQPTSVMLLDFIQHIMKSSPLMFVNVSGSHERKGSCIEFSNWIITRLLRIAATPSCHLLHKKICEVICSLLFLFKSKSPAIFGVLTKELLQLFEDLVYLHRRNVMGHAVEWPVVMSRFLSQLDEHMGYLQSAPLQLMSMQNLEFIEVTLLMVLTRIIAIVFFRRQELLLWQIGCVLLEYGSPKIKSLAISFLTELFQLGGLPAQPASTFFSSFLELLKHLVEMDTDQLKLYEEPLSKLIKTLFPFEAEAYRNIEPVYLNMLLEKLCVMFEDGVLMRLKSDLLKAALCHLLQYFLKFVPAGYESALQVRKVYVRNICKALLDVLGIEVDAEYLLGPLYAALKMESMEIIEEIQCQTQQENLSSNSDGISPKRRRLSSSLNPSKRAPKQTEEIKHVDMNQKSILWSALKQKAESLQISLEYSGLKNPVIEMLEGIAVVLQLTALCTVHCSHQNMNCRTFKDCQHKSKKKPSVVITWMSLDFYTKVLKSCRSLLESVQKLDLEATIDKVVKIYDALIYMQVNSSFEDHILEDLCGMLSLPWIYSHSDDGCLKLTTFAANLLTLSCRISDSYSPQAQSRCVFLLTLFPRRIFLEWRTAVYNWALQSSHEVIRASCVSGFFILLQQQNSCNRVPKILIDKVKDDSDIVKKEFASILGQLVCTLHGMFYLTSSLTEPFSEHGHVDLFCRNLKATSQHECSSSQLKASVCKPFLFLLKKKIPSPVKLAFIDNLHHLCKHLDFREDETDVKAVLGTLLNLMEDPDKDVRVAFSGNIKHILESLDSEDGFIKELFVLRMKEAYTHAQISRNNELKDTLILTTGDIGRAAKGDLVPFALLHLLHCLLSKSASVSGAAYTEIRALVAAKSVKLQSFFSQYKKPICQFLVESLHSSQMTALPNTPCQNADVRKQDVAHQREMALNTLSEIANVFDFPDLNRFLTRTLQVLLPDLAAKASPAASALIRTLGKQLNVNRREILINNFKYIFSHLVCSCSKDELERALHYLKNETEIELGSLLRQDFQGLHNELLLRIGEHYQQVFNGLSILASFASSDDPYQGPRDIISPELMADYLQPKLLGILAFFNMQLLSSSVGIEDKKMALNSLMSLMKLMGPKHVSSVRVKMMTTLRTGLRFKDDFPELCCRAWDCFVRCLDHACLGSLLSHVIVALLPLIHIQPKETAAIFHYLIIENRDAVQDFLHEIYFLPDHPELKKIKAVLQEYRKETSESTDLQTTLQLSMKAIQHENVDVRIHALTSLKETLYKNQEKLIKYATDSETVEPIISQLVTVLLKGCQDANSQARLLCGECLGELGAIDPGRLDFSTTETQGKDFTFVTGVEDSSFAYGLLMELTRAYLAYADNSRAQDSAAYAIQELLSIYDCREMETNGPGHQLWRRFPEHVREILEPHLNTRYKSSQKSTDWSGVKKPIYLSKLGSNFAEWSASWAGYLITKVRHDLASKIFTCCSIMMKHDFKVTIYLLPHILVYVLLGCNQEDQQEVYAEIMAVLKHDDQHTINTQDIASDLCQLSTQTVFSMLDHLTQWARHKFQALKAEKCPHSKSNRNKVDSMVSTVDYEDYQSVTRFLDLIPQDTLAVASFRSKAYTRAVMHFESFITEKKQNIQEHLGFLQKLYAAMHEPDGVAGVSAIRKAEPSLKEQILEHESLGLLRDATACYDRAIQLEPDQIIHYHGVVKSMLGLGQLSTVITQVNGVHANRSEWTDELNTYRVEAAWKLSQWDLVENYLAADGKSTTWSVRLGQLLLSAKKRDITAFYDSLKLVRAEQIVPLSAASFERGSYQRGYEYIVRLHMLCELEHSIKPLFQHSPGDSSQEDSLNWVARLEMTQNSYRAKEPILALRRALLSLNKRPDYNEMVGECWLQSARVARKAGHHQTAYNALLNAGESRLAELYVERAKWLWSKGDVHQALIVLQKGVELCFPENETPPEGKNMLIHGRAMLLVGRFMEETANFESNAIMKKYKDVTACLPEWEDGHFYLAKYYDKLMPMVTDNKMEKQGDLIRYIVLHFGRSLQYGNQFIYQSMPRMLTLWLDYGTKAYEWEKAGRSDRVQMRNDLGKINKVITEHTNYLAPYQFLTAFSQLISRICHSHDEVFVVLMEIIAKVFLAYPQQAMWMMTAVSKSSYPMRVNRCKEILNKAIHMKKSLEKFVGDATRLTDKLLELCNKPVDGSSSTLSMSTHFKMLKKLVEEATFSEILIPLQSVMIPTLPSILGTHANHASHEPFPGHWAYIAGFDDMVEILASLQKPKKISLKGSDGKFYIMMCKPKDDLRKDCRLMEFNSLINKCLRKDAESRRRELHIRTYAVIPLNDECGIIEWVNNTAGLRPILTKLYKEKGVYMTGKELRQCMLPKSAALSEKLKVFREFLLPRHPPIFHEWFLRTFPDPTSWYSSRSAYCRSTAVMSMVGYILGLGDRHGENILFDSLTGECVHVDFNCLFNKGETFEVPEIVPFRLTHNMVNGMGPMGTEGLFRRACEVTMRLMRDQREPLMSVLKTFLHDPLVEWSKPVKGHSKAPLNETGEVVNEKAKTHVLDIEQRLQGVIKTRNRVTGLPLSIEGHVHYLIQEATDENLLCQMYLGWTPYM

Structure (SMILES): COc1c2c(cc3c1-c1c(cc4c(c1OC)OCO4)C[C@H](C)[C@H](C)C3)OCO2 (atropisomer, axis not shown) [SchC, Schizandrin C]
activity at 30 µM [1]: 42.6% | Rate of Divided cells [2]: 0.68 ± 0.11%

Structure (SMILES): COc1cc2c(c(OC)c1OC)-c1c(cc3c(c1OC)OCO3)C[C@H](C)[C@](C)(O)[C@H]2OC(=O)c1ccccc1 (atropisomer, axis not shown) [GC, Gomisin C]
activity at 30 µM [1]: 49.8% | Rate of Divided cells [2]: 1.16 ± 0.16%

Structure (SMILES): Cn1c(=O)c2c(ncn2C)n(C)c1=O [Caffeine, 3,7-dihydro-1,3,7-trimethyl-1H-purine-2,6-dione]
IC50 for ATM relative to that of ATR [3]: ⅕

Structure (SMILES): COc1cc2c(c(OC)c1OC)-c1c(cc(OC)c(OC)c1OC)C[C@](C)(O)[C@@H](C)C2 (atropisomer, axis not shown) [S, Schizandrin]
activity at 30 µM [1]: 42.7% | Rate of Divided cells [2]: 0.68 ± 0.04%

IC50 [4]: 10.6 µM
Structure (SMILES): COc1cc2c(c(OC)c1OC)-c1c(cc3c(c1OC)OCO3)C[C@H](C)[C@@](C)(O)[C@H]2OC(=O)c1ccccc1 (atropisomer, axis not shown) [GC, Gomisin C]

Structure (SMILES): C/C=C(/C)C(=O)O[C@H]1c2cc(OC)c(OC)c(OC)c2-c2c(cc3c(c2OC)OCO3)C[C@H](C)[C@@]1(C)O (atropisomer, axis not shown) [GB, Gomisin B]
activity at 30 µM [1]: 60.9% | Rate of Divided cells [2]: 0.85 ± 0.12%

IC50 [4]: 45.7 µM
Structure (SMILES): COc1cc2c(c(O)c1OC)-c1c(cc(OC)c(OC)c1OC)C[C@](C)(O)[C@@H](C)C2 (atropisomer, axis not shown) [GH, Gomisin H]
activity at 30 µM [1]: 50.3% | Rate of Divided cells [2]: 1.42 ± 0.03%

IC50 [4]: 111 µM
Structure (SMILES): C/C=C(\C)C(=O)O[C@@]1(C)Cc2cc(OC)c(OC)c(OC)c2-c2c(cc3c(c2OC)OCO3)C[C@@H]1C (atropisomer, axis not shown) [AGA, Angeloyl Gomisin A, reference compound]
activity at 30 µM [1]: 92.2% | Rate of Divided cells [2]: 1.04 ± 0.06%

IC50 [4]: 32 µM
Structure (SMILES): COc1cc2c(c(OC)c1OC)-c1c(cc3c(c1OC)OCO3)[C@H](OC(=O)c1ccccc1)[C@](C)(O)[C@@H](C)C2 (atropisomer, axis not shown) [GG, Gomisin G]
activity at 30 µM [1]: 51.3% | Rate of Divided cells [2]: 1.13 ± 0.05%

Structure (SMILES): COc1cc2c(c(OC)c1OC)-c1c(cc3c(c1OC)OCO3)C[C@H](C)[C@@](C)(O)C2 (atropisomer, axis not shown) [GA, Gomisin A]
activity at 30 µM [1]: 58.3% | Rate of Divided cells [2]: 0.90 ± 0.07%

Structure (SMILES): COc1cc2c(c(OC)c1OC)-c1c(cc3c(c1OC)OCO3)C[C@@H](C)[C@@H](C)C2 (atropisomer, axis not shown) [GN, Gomisin N]
activity at 30 µM [1]: 38.4% | Rate of Divided cells [2]: 0.88 ± 0.12%
